Patent US7919508B2, “3-piperidinylisochroman-5-ols as dopamine agonists” (Aventis Pharmaceuticals Inc., priority 2004, dated 2011)
Structures can show the parent of a compound that is named as a salt. Where two headings read alike, the source gives them in different places.

How the values were obtained:
[1] = target: human dopamine D2Long (D2L) receptors (Homo sapiens, UniProt P14416)
[2] = target: T1, D1 receptor (Homo sapiens, UniProt P21728); assay: D1 Activation Adenylyl Cyclase Assay (cAMP FlashPlate, D1 transfected CHO cell line); format: cell-based
T1 construct: expressed in transfected cells; host or cells: D1 transfected CHO cell line
T1 sequence (P21728 whole entry): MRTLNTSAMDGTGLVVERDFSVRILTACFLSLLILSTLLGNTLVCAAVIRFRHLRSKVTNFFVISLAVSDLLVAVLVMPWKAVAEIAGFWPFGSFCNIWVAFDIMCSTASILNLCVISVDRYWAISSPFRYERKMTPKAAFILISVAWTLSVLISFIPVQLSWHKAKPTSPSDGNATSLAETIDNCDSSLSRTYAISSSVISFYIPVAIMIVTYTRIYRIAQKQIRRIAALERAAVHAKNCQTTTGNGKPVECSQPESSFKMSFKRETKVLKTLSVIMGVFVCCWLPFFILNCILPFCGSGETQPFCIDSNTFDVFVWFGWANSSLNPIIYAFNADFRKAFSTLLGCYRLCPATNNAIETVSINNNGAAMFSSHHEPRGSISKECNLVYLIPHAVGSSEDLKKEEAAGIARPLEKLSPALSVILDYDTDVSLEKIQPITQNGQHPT
Description: D1 Activation Adenylyl Cyclase Assay
Purpose: To measure D1-agonist activity compounds using an Adenylyl Cyclase Activation Flash Plate Assay from NEN.
Buffers: Activation and Detection buffers are provided from NEN: Catalog # SMP004A.
Maintenance of D1 transfected CHO cell line: • 1. Cells are grown in a 150 cc flask in an incubator at 37° C. with 5% CO2 for 2-3 days (4 maximum) until confluent. • 2. Aspirate off old media (Cells adhere to the plastic flask), wash 2× with sterile PBS. • 3. Add ˜5 mL of Trypsin EDTA (enough to cover bottom of the flask) for 5 min. at RT. • 4. Stop digestion with 15 mL of Media (Ham's F12 plus 10% FBS, 1% P/S, 400 μg/mL G418). • Bang flask on counter to release them from the flask. • 5. Add 2 mL of this to 30 mL of Media in a fresh flask. Return to incubator. Preparation of Cells for Assay: • 1. Loosen the cells with 5 mL Vercine (EDTA)/flask for 10 minutes in incubator. • 2. Add 20 mL of Serum-free media/flask. Transfer to 50-mL Falcon tube. • 3. Spin down cells at 1000 RPM for 5 minutes at 4° C. • 4. Aspirate off old media and resuspend in 5 mL of Serum-free media/plate to be done. • 5. Dilute 10 μL 1/10 in 90 μL Trypan Blue solution and count with a hemocytometer. • Count (live cells only) all four areas and average them. • Count X 10^5 equals cells/mL (including accounting for dilution in Trypan). • 6. Dilute to 50,000 cells/50 μL (1,000,000 cells/mL) in Serum-free media. • 7. Put 50 μL/well in Rows 3-12 of a cAMP FlashPlate. • 8. Put in incubator at 37° C. for 2-4 hours, to allow cells to recover and attach. Adenylyl Cyclase Activation Assay: • 1. Prepare the cAMP standards: • Add 130 μL/well of stimulation buffer to each row of a separate 96-well “standard” plate, 2 columns/plate. • Dilute stock cAMP standard 1/5 with stimulation buffer (final concentration is 1000 pmol/mL). Add 130 μL of this to row A. • Make 1/2 serial dilutions by adding 130 μL from each well to the next (A-G), mixing between each. • Final concentrations are: • A: 500, B: 250, C: 125, D: 62.5, E: 31.25, F: 15.6, G: 7.8, H: 0 pmol/mL. • Place 100 μL from each row from 2 columns of the standard plate into columns 1 and 2 of each “reaction” plate. • 2. Prepare the negative and positive control in the “reaction” plate: • Column 3, rows A-D, add 100 μL stimulation buffer (negative control). • Column 3, rows E-H, add 90 μL of stimulation buffer plus 10 μL of 200 μM APO (positive control, […]). (10 μL 10 mM APO, plus 490 μL stim. buffer=1/50 dilution.) • 3. Prepare the agonist compound dilutions in the “compound” plate: • Add 80 μL of stimulation buffer to row A (One column for each compound), and 90 μL of stimulation buffer to rows B—H. • Add 20 μL of 10 mM of each compound to appropriate row A. • Make 1/10 serial dilutions by adding 10 μL from each well to the next (A-H), mixing between each. • 4. […]. Prepare Detection/Stop buffer by adding 90 μL/plate of cAMP-^125I to 10 mL/plate plus 6 mL (for dead volume) of detection buffer. Steps 6-8 performed with the Multi-Mek. • 6. Add 50 μL to each well of the FlashPlate with CHO cells set up earlier. • 7. Incubate at RT for 8 minutes. • 8. Stop reaction by adding 100 μL of detection/stop buffer to each well. • 9. Cover with plastic film and incubate at RT for 16-24 hours (don't wait more than 24 hours). • 10. Count in a Packard Top-Count. Calculations: • 1. Raw signals generated by cAMP standard wells, without cells, are averaged at each cAMP concentration and converted to % B/Bo by dividing the raw signal at each cAMP concentration by the raw signal with no cAMP added. • 2. These values are used to generate a standard curve by plotting cAMP concentration versus % B/Bo. • 3. Raw data for each compound at each concentration is also converted to % B/B. by the same method. • 4. These values are then converted to pmol cAMP/mL using the standard curve. • 5. These cAMP values are then averaged across the three replicates for each compound concentration. • 6. […]

[3] = target: T2, human dopamine D1 receptor (Homo sapiens, UniProt P21728); assay: [3H]-SCH-23390 binding to cloned human dopamine D1 receptors (CHO cell membranes)
T2 construct: A 1.4 Kb Hind III to Xho I fragment was subcloned into the vector pMMLV; expressed in transfected cells; host or cells: CHO cells, clone CHO-D1M#9 (plasmid pHD1MMLV), membranes
T2 sequence (P21728 whole entry, the tested form may be a part): as the sequence (P21728 whole entry) above

[4] = agonist activity at the D1 receptor, adenylate cyclase assay, D1 transfected CHO cell line, read-out: D1 EC50
[5] = competitive binding, [3H]-SCH-23390, cloned human D1 in CHO membranes, read-out: D1 affinity Ki

human dopamine D2Long (D2L) receptors, sequence (P14416 whole entry): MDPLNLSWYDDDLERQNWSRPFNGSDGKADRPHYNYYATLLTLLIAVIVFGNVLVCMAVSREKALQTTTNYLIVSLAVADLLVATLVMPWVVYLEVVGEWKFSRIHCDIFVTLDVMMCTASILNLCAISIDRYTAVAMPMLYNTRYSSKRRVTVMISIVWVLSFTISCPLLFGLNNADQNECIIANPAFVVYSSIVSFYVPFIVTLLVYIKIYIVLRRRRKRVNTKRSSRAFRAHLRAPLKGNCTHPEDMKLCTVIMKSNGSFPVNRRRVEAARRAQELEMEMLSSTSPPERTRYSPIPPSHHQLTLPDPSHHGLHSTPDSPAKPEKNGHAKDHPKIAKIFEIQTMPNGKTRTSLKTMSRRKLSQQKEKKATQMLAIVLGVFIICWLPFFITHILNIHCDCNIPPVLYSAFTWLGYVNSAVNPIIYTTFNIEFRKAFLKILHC

Row | SMILES | Ki [1] [nM] | EC50 [2, 4] [nM] | Ki [3, 5] [nM] | EC50 [2] [nM] | Ki [3] [nM]
1 | Cc1ccc2c(c1O)C[C@@H](C1CCN(S(=O)(=O)c3cc(Cl)ccc3Cl)CC1)O[C@H]2CN [Example 151, (1R,3S)-1-Aminomethyl-3-[1-(2,5-dichloro-benzenesulfonyl)-piperidin-4-yl]-6-methyl-isochroman-5-ol hydrochloride] | ≥ 100000 | 58 | 82 | – | –
2 | COc1cccc(NC(=O)N2CCC([C@@H]3Cc4c(ccc(C)c4O)[C@H](CN)O3)CC2)c1 [Example 125, 4-((1R,3S)-1-Aminomethyl-5-hydroxy-6-methyl-isochroman-3-yl)-piperidine-1-carboxylic acid (3-methoxy-phenyl)-amide] | ≥ 10000 | 60 | 79 | – | –
3 | COc1ccc(OC(=O)N2CCC([C@@H]3Cc4c(ccc(C)c4O)[C@H](CN)O3)CC2)cc1 [Example 120, 4-((1R,3S)-1-Aminomethyl-5-hydroxy-6-methyl-isochroman-3-yl)-piperidine-1-carboxylic acid 4-methoxy-phenyl ester hydrochloride] | 767 | – | – | 36 | 45
4 | Cc1ccc2c(c1O)C[C@@H](C1CCN(S(=O)(=O)Cc3ccccc3[N+](=O)[O-])CC1)O[C@H]2CN [Example 158, (1R,3S)-1-Aminomethyl-6-methyl-3-[1-(2-nitro-phenylmethanesulfonyl)-piperidin-4-yl]-isochroman-5-ol hydrochloride] | ≥ 100000 | 11 | 95.2 | – | –
5 | Cc1ccc2c(c1O)C[C@@H](C1CCN(C(=O)N(C)c3ccccc3)CC1)O[C@H]2CN [Example 131, 4-((1R,3S)-1-Aminomethyl-5-hydroxy-6-methyl-isochroman-3-yl)-piperidine-1-carboxylic acid methyl-phenyl-amide hydrochloride] | ≥ 10000 | 6.4 | 51 | – | –
6 | Cc1ccc2c(c1O)C[C@@H](C1CCN(Cc3ccccc3)CC1)O[C@H]2CN1CCCC1 [Example 178, (1R,3S)-3-(1-Benzyl-piperidin-4-yl)-6-methyl-1-pyrrolidin-1-ylmethyl-isochroman-5-ol] | 181 | ≥ 10000 | – | – | –
7 | COc1ccc(CN2CCC([C@@H]3Cc4c(ccc(C)c4O)[C@H](CN)O3)CC2)cc1 [Example 61, (1R,3S)-1-Aminomethyl-3-[1-(4-methoxy-benzyl)-piperidin-4-yl]-6-methyl-isochroman-5-ol dihydrochloride] | – | 47 | 19.8 | – | –
8 | CCNC[C@@H]1O[C@H](C2CCN(Cc3ccc(C(F)(F)F)cc3)CC2)Cc2c1ccc(C)c2O [Example 182, (1R,3S)-1-Ethylaminomethyl-6-methyl-3-[1-(4-trifluoromethyl-benzyl)-piperidin-4-yl]-isochroman-5-ol] | – | 1300 | 255 | – | –
9 | CNC[C@@H]1O[C@H](C2CCN(C)CC2)Cc2c1ccc(C)c2O [Example 102, (1R,3S)-6-Methyl-1-methylaminomethyl-3-(1-methyl-piperidin-4-yl)-isochroman-5-ol dihydrobromide] | – | 1500 | 147 | – | –
10 | Cc1ccc2c(c1O)C[C@@H](C1CCN(CCCC(c3ccc(F)cc3)c3ccc(F)cc3)CC1)O[C@H]2CN [Example 108, (1R,3S)-1-Aminomethyl-3-{1-[4,4-bis-(4-fluoro-phenyl)-butyl]-piperidin-4-yl}-6-methyl-isochroman-5-ol dihydrobromide] | – | 36 | 110 | – | –
11 | Cc1ccc2c(c1O)C[C@@H](C1CCN(Cc3ccncc3)CC1)O[C@H]2CN [Example 54, (1R,3S)-1-Aminomethyl-6-methyl-3-(1-pyridin-4-ylmethyl-piperidin-4-yl)-isochroman-5-ol dihydrochloride] | – | 45 | 153 | – | –
12 | Cc1ccc2c(c1O)C[C@@H](C1CCN(Cc3ccc(C(F)(F)F)cc3F)CC1)O[C@H]2CN [Example 70, (1R,3S)-1-Aminomethyl-3-[1-(2-fluoro-4-trifluoromethyl-benzyl)-piperidin-4-yl]-6-methyl-isochroman-5-ol dihydrochloride] | – | 77 | 19.4 | – | –
13 | Cc1ccc2c(c1O)C[C@@H](C1CCN(Cc3ccc(C(F)(F)F)cc3)CC1)O[C@H]2CN(C)C [Example 168, (1R,3S)-1-Dimethylaminomethyl-6-methyl-i-3-[1-(4-trifluoromethylbenzyl)piperidin-4-yl]-isochroman-5-ol] | – | 31000 | 45 | – | –
14 | CNC[C@@H]1O[C@H](C2CCN(Cc3ccc(C(F)(F)F)cc3)CC2)Cc2c1ccc(C)c2O [Example 181, (1R,3S)-6-Methyl-1-methylaminomethyl-3-[1-(4-trifluoromethyl-benzyl)-piperidin-4-yl]-isochroman-5-ol hydrochloride] | – | 220 | 21 | – | –
15 | Cc1ccc(C(=O)NC(C)CCN2CCC([C@@H]3Cc4c(ccc(C)c4O)[C@H](CN)O3)CC2)cc1 (stereo partly drawn) [Example 15, N-{3-[4-((1R,3S)-1-Aminomethyl-5-hydroxy-6-methyl-isochroman-3-yl)-piperidin-1-yl]-1-methyl-propyl}-4-methyl-benzamide dihydrochloride] | – | 11 | 126 | – | –
16 | Cc1ccc2c(c1O)C[C@@H](C1CCN(Cc3ccoc3)CC1)O[C@H]2CN [Example 71, (1R,3S)-1-Aminomethyl-3-(1-furan-3-ylmethyl-piperidin-4-yl)-6-methyl-isochroman-5-ol hydrochloride] | – | 420 | 94.2 | – | –
17 | Cc1ccc2c(c1O)C[C@@H](C1CCN(Cc3ccc(F)c(F)c3)CC1)O[C@H]2CN [Example 63, (1R,3S)-1-Aminomethyl-3-[1-(3,4-difluoro-benzyl)-piperidin-4-yl]-6-methyl-isochroman-5-ol dihydrochloride] | – | 9 | 6.8 | – | –
18 | Cc1ccc2c(c1O)C[C@@H](C1CCN(Cc3cccc(F)c3)CC1)O[C@H]2CN [Example 69, (1R,3S)-1-Aminomethyl-3-[1-(3-fluoro-benzyl)-piperidin-4-yl]-6-methyl-isochroman-5-ol dihydrochloride] | – | 10 | 32.5 | – | –
19 | Cc1ccc2c(c1O)C[C@@H](C1CCN(Cc3ccsc3)CC1)O[C@H]2CN [Example 67, (1R,3S)-1-Aminomethyl-6-methyl-3-(1-thiophen-3-ylmethyl-piperidin-4-yl)-isochroman-5-ol dihydrochloride] | – | 9 | 62.6 | – | –
20 | CCN(C)C[C@@H]1O[C@H](C2CCN(Cc3ccc(C(F)(F)F)cc3)CC2)Cc2c1ccc(C)c2O [Example 183, (1R,3S)-1-[(Ethyl-methyl-amino)-methyl]-6-methyl-3-[1-(4-trifluoromethyl-benzyl)-piperidin-4-yl]-isochroman-5-ol] | – | 7000 | 123 | – | –
